Tests used:
[1] = biological target: T1, Tyrosine-protein phosphatase non-receptor type 5 (Homo sapiens, UniProt P54829); experiment: Inhibition of STEP (unknown origin) pre-incubated for 10 mins before addition of p-nitrophenyl phosphate substrate in presence of 1 mM GSH
T1 sequence (P54829 whole entry): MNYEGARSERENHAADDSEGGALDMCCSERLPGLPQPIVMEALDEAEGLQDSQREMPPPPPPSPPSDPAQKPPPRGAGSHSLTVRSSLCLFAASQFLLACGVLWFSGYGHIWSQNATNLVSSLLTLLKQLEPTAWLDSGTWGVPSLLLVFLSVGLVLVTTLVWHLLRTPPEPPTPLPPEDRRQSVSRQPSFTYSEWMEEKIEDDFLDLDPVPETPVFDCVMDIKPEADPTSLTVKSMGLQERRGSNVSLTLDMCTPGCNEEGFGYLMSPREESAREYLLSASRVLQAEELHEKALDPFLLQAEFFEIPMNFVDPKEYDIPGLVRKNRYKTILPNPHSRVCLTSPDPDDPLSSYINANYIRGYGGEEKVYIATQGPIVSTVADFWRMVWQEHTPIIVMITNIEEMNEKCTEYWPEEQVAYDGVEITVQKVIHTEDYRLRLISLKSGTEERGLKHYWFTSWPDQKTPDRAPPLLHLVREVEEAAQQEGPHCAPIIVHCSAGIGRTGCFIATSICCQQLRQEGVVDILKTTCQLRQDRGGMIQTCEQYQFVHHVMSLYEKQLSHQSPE

[2] = biological target: T2, Tyrosine-protein phosphatase non-receptor type 5 (Homo sapiens) (UniProt P54829)
T2 sequence (whole entry): T1 sequence (P54829 whole entry)
Description: Inhibition of STEP (unknown origin) assessed as second-order rate constant for enzyme inactivation in absence of GSH by p-nitrophenyl phosphate hydrolysis assay

[3] = biological target: T1, Tyrosine-protein phosphatase non-receptor type 5; experiment: Inhibition of STEP (unknown origin) in absence of GSH by p-nitrophenyl phosphate hydrolysis assay
[4] = biological target: T1, Tyrosine-protein phosphatase non-receptor type 5; experiment: Inhibition of STEP (unknown origin) pre-incubated for 10 mins before addition of p-nitrophenyl phosphate substrate in absence of GSH

O=C(Nc1cc(C(F)(F)F)cc2c1SSSSS2)C(F)(F)F
IC50 [1]: 15 µM
Kinact [2]: 0.0378 s⁻¹
Ki [3]: 0.235 µM
IC50 [4]: 0.024 µM
